Source: ChEMBL document CHEMBL1201862, “PubChem BioAssay data set” (2004)
Calls of active or inactive are those of the source.

Experiments:
[1] = RAM pathway signaling blockade in S. cerevisiae – dose response (AID 1307); assay type: functional
[2] = tested on: BJ; assay: BJ-TERT fibroblast viability loss – cell-based, RAS-independent, luminescence, dose response (AID 1933); assay type: functional; settings: Homo sapiens
[3] = tested on: BJ; assay: cells; assay type: functional, cell-based; settings: Homo sapiens
[4] = Trypanosoma cruzi growth suppression in host cells – NIH3T3 host cells, beta-gal luminescence, confirmation (AID 2044); assay type: functional, cell-based;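 further: intracellular parasites grown in NIH/3T3 mouse fibroblasts as host cells; luminescent beta-galactosidase reporter signal from transgenic T. cruzi replicating inside host cells; inhibitors lower the luminescence signal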
[5] = Luminescence-based dose response cell-based high throughput screening assay for cytotoxic compounds using the IEC-6 intestinal epithelial cell line. [Related pubchem assays: 1858 (Summary AID.), 1825 (Counterscreen.), 1907 (Confirmation screen.)]; assay type: functional
[6] = NIH3T3 cell viability loss – ATP luminescence, mouse fibroblasts, counter-screen, dose response (AID 2010); assay type: functional, cell-based;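 further: cells exposed to compound for about 90 hours before reading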
[7] = tested on: BJ; assay: BJ-TERT-LT-ST fibroblast viability loss – cell-based, RAS-independent, luminescence, dose response (AID 1935); assay type: functional; settings: Homo sapiens;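 further: BJ fibroblasts immortalized with TERT plus LT and ST oncogenes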
[8] = DRD fibroblast viability loss – cell-based, non-viral oncogenic, luminescence, dose response (AID 1934); assay type: functional; settings: Homo sapiens
[9] = HEK-293T viability loss after treatment – luminescence, T-cell screen hits, cytotoxicity control for TCR NF-kB inhibitor project, dose response (AID 489026); assay type: functional, cell-based;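 further: cells exposed to compound about 14 hours before the viability readout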
[10] = toxicity toward HEK293 cells – cell-based, dry powder samples, cytotoxicity control, dose response (AID 720567); assay type: functional
[11] = target: Diphosphomevalonate decarboxylase (Streptococcus pneumoniae serotype 2 (strain D39 / NCTC 7466), UniProt Q9FD53); assay: diphosphomevalonate decarboxylase inhibitor confirmation – biochemical, cuvette format, coupled NADH fluorescence (AID 1028); assay type: functional
Diphosphomevalonate decarboxylase, sequence (Q9FD53 whole entry): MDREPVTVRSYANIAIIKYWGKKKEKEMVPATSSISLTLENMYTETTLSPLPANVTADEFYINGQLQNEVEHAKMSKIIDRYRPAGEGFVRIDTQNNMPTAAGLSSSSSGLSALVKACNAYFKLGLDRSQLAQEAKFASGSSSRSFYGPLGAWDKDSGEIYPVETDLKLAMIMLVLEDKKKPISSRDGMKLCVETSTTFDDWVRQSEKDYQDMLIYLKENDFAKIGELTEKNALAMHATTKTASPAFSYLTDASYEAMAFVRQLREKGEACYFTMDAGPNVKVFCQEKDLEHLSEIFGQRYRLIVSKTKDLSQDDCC

[12] = Luminescence Cell-Based Dose Response to Identify Activators of 5'UTR Stem-Loop Driven Prion Protein mRNA Translation in H4-C Neuroglioblastoma Cells. [Related pubchem assays: 1829 (Project Summary), 1814 (Primary HTS)]; assay type: functional
[13] = Luminescence Cell-Based Dose Response HTS to Identify Activators of Luciferase Translation or Activity in H4 […] Cells. [Related pubchem assays: 1829 (Project Summary), 1814 (Primary HTS)]; assay type: functional
[14] = Luminescence Cell-Based Dose Response to Identify Activators of Luciferase Translation or Activity in H4-C Neuroglioblastoma Cells. [Related pubchem assays: 1829 (Project Summary), 1814 (Primary HTS)]; assay type: functional
[15] = Luminescence Cell-Based Dose Confirmation to Identify Activators of 5'UTR Stem-Loop Driven Alpha-Synuclein mRNA Translation in H4 Neuroglioblastoma Cells. [Related pubchem assays: 1829 (Project Summary), 1814 (Primary HTS)]; assay type: functional
[16] = target: Aryl hydrocarbon receptor (Homo sapiens, UniProt P35869); assay: Luminescence-based cell-based high throughput dose response assay for activators of the Aryl Hydrocarbon Receptor (AHR). [Related pubchem assays: 2796 (Primary screen (AHR activators in singlicate)), 2845 (Confirmation screen (AHR activators in triplicate)), 434939 (Counterscreen (PXR activators in triplicate)), 2804 (Summary (AHR activators))]; assay type: ADME
Aryl hydrocarbon receptor, sequence (P35869 whole entry, the tested form may be a part): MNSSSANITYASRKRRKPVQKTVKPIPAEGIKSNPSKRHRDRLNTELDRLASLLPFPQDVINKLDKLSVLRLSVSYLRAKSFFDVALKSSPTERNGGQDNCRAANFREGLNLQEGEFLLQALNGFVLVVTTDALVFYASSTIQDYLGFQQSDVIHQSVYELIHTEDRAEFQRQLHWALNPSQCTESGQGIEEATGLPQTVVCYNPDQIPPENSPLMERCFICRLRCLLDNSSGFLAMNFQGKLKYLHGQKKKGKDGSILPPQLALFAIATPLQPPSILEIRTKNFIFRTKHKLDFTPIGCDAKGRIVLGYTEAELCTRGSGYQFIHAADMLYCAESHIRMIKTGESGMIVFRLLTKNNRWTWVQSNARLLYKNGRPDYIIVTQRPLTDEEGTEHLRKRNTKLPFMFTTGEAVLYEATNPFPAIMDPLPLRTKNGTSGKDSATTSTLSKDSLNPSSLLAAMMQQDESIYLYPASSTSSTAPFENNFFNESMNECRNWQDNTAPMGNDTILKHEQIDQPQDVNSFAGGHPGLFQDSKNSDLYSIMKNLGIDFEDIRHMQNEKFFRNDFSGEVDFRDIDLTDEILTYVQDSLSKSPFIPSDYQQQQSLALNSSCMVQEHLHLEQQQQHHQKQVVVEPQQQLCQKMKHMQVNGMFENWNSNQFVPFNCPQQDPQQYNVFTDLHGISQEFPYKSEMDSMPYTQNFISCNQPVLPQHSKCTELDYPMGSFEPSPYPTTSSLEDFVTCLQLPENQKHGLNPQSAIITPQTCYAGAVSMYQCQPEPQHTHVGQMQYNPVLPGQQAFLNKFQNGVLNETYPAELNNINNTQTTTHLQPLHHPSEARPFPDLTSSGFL

[17] = target: T1, Oxysterols receptor LXR-beta (Homo sapiens, UniProt P55055); assay type: functional, cell-based;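 further: agonist activity at LXR measured by a cell-based luminescence readout across a dose range, run as a counterscreen for daf-12 agonists; HEK293 cells with Gal4-LXR fusion and GAL4-driven luciferase reporter; potency for activation of Gal4-LXR reporter so compounds are agonists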
T1 sequence (P55055 whole entry): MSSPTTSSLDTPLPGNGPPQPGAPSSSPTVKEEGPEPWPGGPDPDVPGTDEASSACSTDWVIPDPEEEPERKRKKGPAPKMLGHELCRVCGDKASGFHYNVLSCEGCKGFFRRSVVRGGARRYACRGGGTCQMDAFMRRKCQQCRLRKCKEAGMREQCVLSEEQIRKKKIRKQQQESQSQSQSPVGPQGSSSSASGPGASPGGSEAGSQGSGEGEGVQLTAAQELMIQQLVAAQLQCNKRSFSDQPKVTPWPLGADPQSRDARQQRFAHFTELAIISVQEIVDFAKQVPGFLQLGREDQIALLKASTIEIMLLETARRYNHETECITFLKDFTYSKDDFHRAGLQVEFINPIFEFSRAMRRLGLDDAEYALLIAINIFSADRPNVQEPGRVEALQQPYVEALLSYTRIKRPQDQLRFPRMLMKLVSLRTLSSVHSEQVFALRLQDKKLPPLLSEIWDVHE

[18] = Luminescent dose response cell-based high throughput screening assay for inhibitors of the Janus kinase 2 mutant JAK2V617F. [Related pubchem assays: 1446 (Primary screen.), 1521 (Confirmation assay.), 1486 (Counter screen.)]; assay type: functional
[19] = target: T2, DNA repair and recombination protein RAD54-like (Homo sapiens, UniProt Q92698); assay: RAD54 Holliday junction migration blockers – biochemical, fluorescence, cherry-picked samples, dose series, confirmation (AID 651657); assay type: functional
T2 sequence (Q92698 whole entry): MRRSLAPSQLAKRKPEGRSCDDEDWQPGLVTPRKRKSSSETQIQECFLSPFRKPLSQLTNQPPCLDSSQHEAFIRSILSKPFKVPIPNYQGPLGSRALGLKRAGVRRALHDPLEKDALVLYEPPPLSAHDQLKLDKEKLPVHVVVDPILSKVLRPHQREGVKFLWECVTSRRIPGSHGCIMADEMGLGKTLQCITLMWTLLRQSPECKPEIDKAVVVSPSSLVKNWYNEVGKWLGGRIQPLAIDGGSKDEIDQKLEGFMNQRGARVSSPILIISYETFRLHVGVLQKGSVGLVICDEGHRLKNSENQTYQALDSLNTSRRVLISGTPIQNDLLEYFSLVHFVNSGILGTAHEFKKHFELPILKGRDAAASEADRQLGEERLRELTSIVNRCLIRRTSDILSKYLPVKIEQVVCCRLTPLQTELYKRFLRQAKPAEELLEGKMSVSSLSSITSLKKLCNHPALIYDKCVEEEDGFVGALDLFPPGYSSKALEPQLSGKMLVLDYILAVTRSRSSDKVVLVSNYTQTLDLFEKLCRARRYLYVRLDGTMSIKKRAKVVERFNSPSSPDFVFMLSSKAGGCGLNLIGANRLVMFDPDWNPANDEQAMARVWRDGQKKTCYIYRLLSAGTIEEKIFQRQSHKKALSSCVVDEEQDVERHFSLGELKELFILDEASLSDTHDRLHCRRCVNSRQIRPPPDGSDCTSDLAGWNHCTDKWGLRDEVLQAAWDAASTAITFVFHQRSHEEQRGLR

[20] = M. tuberculosis H37Rv growth inhibitors, H37Rv strain (AID 1626); assay type: functional
[21] = target: 5-hydroxytryptamine receptor 1A (Homo sapiens, UniProt P08908); assay type: functional
5-hydroxytryptamine receptor 1A, sequence (P08908 whole entry): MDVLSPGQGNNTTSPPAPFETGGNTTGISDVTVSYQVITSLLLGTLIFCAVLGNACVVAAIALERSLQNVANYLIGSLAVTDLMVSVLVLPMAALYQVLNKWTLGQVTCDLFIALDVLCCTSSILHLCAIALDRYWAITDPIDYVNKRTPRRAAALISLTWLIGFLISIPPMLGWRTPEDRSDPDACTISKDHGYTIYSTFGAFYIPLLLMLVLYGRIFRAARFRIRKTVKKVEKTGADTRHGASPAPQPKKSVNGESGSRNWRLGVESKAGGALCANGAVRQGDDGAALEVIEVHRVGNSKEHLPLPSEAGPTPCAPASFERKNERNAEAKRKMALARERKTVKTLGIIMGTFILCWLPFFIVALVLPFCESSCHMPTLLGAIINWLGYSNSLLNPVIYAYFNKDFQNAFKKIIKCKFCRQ

In the case of `CN1/C(=C\C=C2/C(=O)Oc3ccccc3C2=O)C(C)(C)c2ccccc21`, the IC50 [1] is reported as 178000 nM (active).

In the case of `CCn1c2ccccc2c2cc(NC(=O)c3cc(OC)c(OC)c(OC)c3)ccc21`, the EC50 [2] is reported as 184 nM (active), the EC50 [3] is reported as 745 nM (inconclusive) and the EC50 [4] is reported as 1000 nM (active). For the same molecule, the IC50 [5] was 534 nM (active), the EC50 [6] was 121 nM (active) and the EC50 [7] was 165 nM (inconclusive). The EC50 [8] was 284 nM (inconclusive), the IC50 [9] was > 80000 nM (inactive) and the AC50 [10] was 25600 nM (active).

In the case of `O=C(c1ccc(-n2sc3ccccc3c2=O)cc1)N1CCOCC1`, the IC50 [11] is reported as 13100 nM (active).

In the case of `O=c1sc(N2CCN(c3ccccc3F)CC2)nc2ccsc12`, the EC50 [12] is reported as 309 nM (active), the EC50 [13] is reported as < 100 nM (inconclusive) and the EC50 [14] is reported as 349 nM (active). The EC50 [15] was 237 nM (active).

With `Cc1ccc(Nc2ncccc2C(N)=O)cc1` the EC50 [16] was 1360 nM (active) and the EC50 [17] was > 67400 nM (inactive).

With `CC1CCN(CCCNC(=O)c2cc3c(Cl)nc4ccccc4c3s2)CC1` the IC50 [18] was 960 nM (active), the EC50 [4] was 2100 nM (active) and the AC50 [19] was 11700 nM (active).

With `O=C(Nc1nnc(-c2ccc3c(c2)OCCO3)o1)C1CCCCC1` the IC50 [20] was > 100000 nM (active).

In the case of `CN1CCN(/C(=N\O)c2nonc2N)CC1`, the EC50 [21] is reported as > 50000 nM (not active).
